SMILES strings stand for the structures.

The results in this text go back to ChEMBL document CHEMBL5727760, “Pyrrolidine derivatives” (2020).

Chain of Cathepsin S (P25774 whole entry): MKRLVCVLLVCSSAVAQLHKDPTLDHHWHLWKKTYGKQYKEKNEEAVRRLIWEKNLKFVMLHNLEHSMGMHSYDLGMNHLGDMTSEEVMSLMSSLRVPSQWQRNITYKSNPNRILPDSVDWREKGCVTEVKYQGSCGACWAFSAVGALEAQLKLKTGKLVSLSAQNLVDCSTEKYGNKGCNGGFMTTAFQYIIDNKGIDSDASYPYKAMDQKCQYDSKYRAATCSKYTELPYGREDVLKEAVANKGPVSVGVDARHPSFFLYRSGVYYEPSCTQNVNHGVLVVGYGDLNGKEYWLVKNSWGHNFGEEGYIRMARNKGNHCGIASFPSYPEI

The assay concerns the target Cathepsin S (Homo sapiens, UniProt P25774). The assay is described as follows: Enzyme Inhibition Assay: Enzyme activity is measured by observing the increase in fluorescence intensity caused by cleavage of a peptide substrate containing a fluorophore whose emission is quenched in the intact peptide.Assay buffer: 100 mM potassium phosphate pH 6.5, EDTA-Na 5 mM, Triton X-100 0.001%, DTT 5 mM.Enzymes (all at 1 nM): human and mouse Cathepsin S, Cat K, Cat B, Cat L.Substrate (20 μM): Z-Val-Val-Arg-AMC, except for Cat K which uses Z-Leu-Arg-AMC (both from Bachem).Z=Benzyloxycarbonyl.AMC=7-Amino-4-Methyl-Coumarin.DTT=dithiothreitol.Final volume: 100 μL.Excitation 360 nm, Emission 465 nm.Enzyme is added to the substance dilutions in 96-well microtitre plates and the reaction is started with substrate.
By IC50 is commonly meant the concentration that gives 50% inhibition. Read a high IC50 as a need for much substance. With `N#CC1(NC(=O)[C@@H]2C[C@@H](S(=O)(=O)c3ccc(-n4cc(C(F)(F)F)cn4)cc3C(F)(F)F)CN2C(=O)C2(C(F)(F)F)CC2)CC1`, the midpoint of inhibition, the IC50, lay at 0.752 nM.

`N#CC1(NC(=O)[C@@H]2C[C@@H](S(=O)(=O)c3ccc(-n4cncn4)cc3C(F)(F)F)CN2C(=O)C2(C(F)(F)F)CC2)CC1` displayed an IC50 of 0.391 nM.

The compound `N#CC1(NC(=O)[C@@H]2C[C@@H](S(=O)(=O)c3ccc(-n4nccn4)cc3C(F)(F)F)CN2C(=O)C2(C(F)(F)F)CC2)CC1` returned an IC50 of 0.506 nM.

Turning to `N#CC1(NC(=O)[C@@H]2C[C@@H](S(=O)(=O)c3ccc(-n4cnc(Cl)n4)cc3C(F)(F)F)CN2C(=O)C2(C(F)(F)F)CC2)CC1`, the IC50 came out at 0.625 nM.

`Cc1nnnn1-c1ccc(S(=O)(=O)[C@@H]2C[C@@H](C(=O)NC3(C#N)CC3)N(C(=O)C3(C(F)(F)F)CC3)C2)c(C(F)(F)F)c1` registered a half-maximal inhibitory concentration (IC50) of 0.349 nM. Against the preceding compound, the IC50 is about 1.8-fold lower.

With `N#CC1(NC(=O)[C@@H]2C[C@@H](S(=O)(=O)c3ccc(-n4cnnn4)cc3C(F)(F)F)CN2C(=O)C2(C(F)(F)F)CC2)CC1`, the IC50 came out at 0.584 nM.
